# pEC50: −log10 of the molar value. Like-named read-outs stand apart in the source and are kept apart here.
# System: HBsAg in HepG2.2.15 cells
# Test: HBsAg Assay: inhibition of HBsAg in HepG2.2.15 cells (CLIA immunoassay of supernatant)
# Format: cell-based, hepatitis B virus
# Conditions: supernatant collected at day 6 after exposure of compounds, final DMSO 0.5%; for EC50: Hepatitis B virus, HepG2.2.15, 144 h, read-out: sAg EC50, μM, HepG2.2.15 cells; for pEC50: read-out: sAg EC50, HepG2.2.15 cells
# Experimental: Inhibition of HBsAg was determined in HepG2.2.15 cells. Cells were maintained in culture medium containing 10% fetal calf serum, […], Glutamine, penicillin/streptomycin. Cells were seeded in 96-well collagen-coated plate at a density of 30,000 cells/well. Serially diluted compounds were added to cells next day at the final DMSO concentration of 0.5%. Cells were incubated with compounds for 2-3 days, after which medium was removed. Fresh medium containing compounds was added to cells for additional 3-4 days. At day 6 after exposure of compounds, supernatant was collected, the HBsAg immunoassay (microplate-based chemiluminescence immunoassay kits, CLIA, Autobio Diagnosics Co., Zhengzhou, China, Catalog #CL0310-2) was used to determine the level of HBsAg according to manufactory instruction. Dose-response curves were generated and the EC50 value (effective concentrations that achieved 50% inhibitory effect) were determined using XLfit software. In addition, cells were seeded at a density of 5,000 cells/well for determination of cell viability in the presence and absence of compounds by using CellTiter-Glo reagent (Promega). Tables 1-3 show EC50 values obtained by the HBsAg assay for selected compounds.
Structure (SMILES),EC50 [µM],pEC50
"CC(C)(C)C1Cn2c(nc3c(OC(F)F)cccc32)-c2[nH]c(=O)c(C(=O)O)cc21 (stereo not shown) [Example 26, 5-(tert-Butyl)-11-(difluoromethoxy)-2-oxo-1,2,5,6-tetrahydrobenzo[4,5]imidazo[1,2-h][1,7]naphthyridine-3-carboxylic Acid]",0.057,–
"COc1[nH]c2c(c(=O)c1C(=O)O)C(C(C)(C)C)Cc1c-2cc(OC(F)F)c2ncccc12 (stereo not shown) [Example 47, 6-(tert-butyl)-12-(difluoromethoxy)-9-methoxy-7-oxo-5,6,7,10-tetrahydroquinolino[7,8-f]quinoline-8-carboxylic Acid]",0.14,–
"COc1cccn2c3c(nc12)-c1[nH]c(=O)c(C(=O)O)cc1C(C(C)C)C3 (single isomer, unassigned) [Example 16, 5-Isopropyl-11-methoxy-2-oxo-1,2,5,6-tetrahydropyrido[2′,1′:2,3]imidazo[4,5-h]quinoline-3-carboxylic Acid]",–,7.32
"CC(C)(C)C1Cc2c(nc3c(OC(F)F)cccn23)-c2[nH]c(=O)c(C(=O)O)cc21 (single isomer, unassigned) [Example 11, 5-(tert-Butyl)-11-(difluoromethoxy)-2-oxo-1,2,5,6-tetrahydropyrido[2′,1′:2,3]imidazo[4,5-h]quinoline-3-carboxylic Acid]",–,4.57
"Cn1c2c(cc(C(=O)O)c1=O)C(C(C)(C)C)Cc1c-2nc(Cl)c2ccccc12 (single isomer, unassigned) [Example 44, 12-(tert-Butyl)-6-chloro-4-methyl-3-oxo-3,4,11,12-tetrahydrobenzo[c][1,10]phenanthroline-2-carboxylic Acid]",–,8.05
"COc1cccn2c3c(nc12)-c1[nH]c(=O)c(C(=O)O)cc1C(C(C)(C)C)C3 (single isomer, unassigned) [Example 14, 5-(tert-Butyl)-11-methoxy-2-oxo-1,2,5,6-tetrahydropyrido[2′,1′:2,3]imidazo[4,5-h]quinoline-3-carboxylic Acid]",–,7.92
"CC(C)(C)C1Cc2c(cc(OC(F)F)c3ncccc23)-c2[nH]c(=O)c(C(=O)O)cc21 (single isomer, unassigned) [Example 38, 6-(tert-butyl)-12-(difluoromethoxy)-9-oxo-5,6,9,10-tetrahydroquinolino[7,8-f]quinoline-8-carboxylic Acid]",–,5.52
